Test results: patent US20260022142A1, “MACROCYCLIC IMMUNOMODULATORS” (Bristol-Myers Squibb Company, priority 2022, published 2026)
pIC50: −log10 of the molar value. Bridge positions count the residues as written; N and C are the ends. Square brackets hold non-standard residues; d marks the D form. Peptide text beside a SMILES is read from it. * marks the point of attachment. ξ: configuration not given here. Phe(4-COOH) = N[C@@H](Cc1ccc(C(=O)O)cc1)C(=O)O; Bip = N[C@@H](Cc1ccc(-c2ccccc2)cc1)C(=O)O; Phe(3-Me) = Cc1cccc(C[C@H](N)C(=O)O)c1; hArg = N=C(N)NCCCC[C@H](N)C(=O)O; Cha = N[C@@H](CC1CCCCC1)C(=O)O; Cit = NC(=O)NCCC[C@H](N)C(=O)O; Thr(3ξ) = CC(O)[C@H](N)C(=O)O; 12Ado = NCCCCCCCCCCCC(=O)O; Carboxymethyl = O=C(O)C*; Orn = NCCC[C@H](N)C(=O)O; Aun = NCCCCCCCCCCC(=O)O; Dab = NCC[C@H](N)C(=O)O; Dap = NC[C@H](N)C(=O)O; AEEA = NCCOCCOCC(=O)O

Biological target: T1, PD-1/PD-L1 interaction (PE-labeled human PD-L1-Ig binding to Jurkat cell line over-expressing human PD-1) (Homo sapiens, UniProt Q15116)
T1 construct: expressed in transfected cells; host or cells: Jurkat
Experiment: Jurkat-PD-1 Cell Binding High-Content Screening Assay (CBA)
Format: cell-based
Settings: Jurkat cell line over-expressing human PD-1; PE-labeled PD-L1-Ig 20 nM final; read-out: Jurkat hPD1-PDL1 IC50
Procedure, shortened: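 Jurkat-hPD-1 cells, DMEM/10% FCS; cpd 2 h 37° C; PE-PD-L1-Ig 20 nM final, 1 h; 4% PFA fix + Hoechst 33342, 3× dPBS wash; high-content imaging read-out.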

T1 sequence (Q15116 25-288): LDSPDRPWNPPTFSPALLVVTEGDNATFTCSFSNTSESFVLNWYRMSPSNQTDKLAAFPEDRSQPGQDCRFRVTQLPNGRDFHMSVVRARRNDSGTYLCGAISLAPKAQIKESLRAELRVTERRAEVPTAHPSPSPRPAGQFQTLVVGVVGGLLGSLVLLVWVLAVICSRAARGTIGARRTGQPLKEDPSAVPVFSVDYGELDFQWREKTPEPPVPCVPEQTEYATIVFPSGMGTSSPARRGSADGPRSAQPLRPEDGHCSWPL

Structure (SMILES) | pIC50
CC(C)C[C@H]1NC(=O)[C@H](CCCN)NC(=O)[C@H](C(C)C)NC(=O)[C@H](Cc2ccc(-c3ccccc3)cc2)NC(=O)[C@H](C(C)C)NC(=O)[C@H](Cc2c[nH]c3ccccc23)NC(=O)[C@H](CC(=O)O)NC(=O)[C@H](Cc2ccc(OCC(=O)O)cc2)NC(=O)[C@H](CCCCNC(=N)N)NC(=O)CSC[C@@H](C(=O)N[C@@H](CCCN)C(=O)NCCOCCOCC(=O)N[C@@H](CCCN)C(=O)NCCCCCCCCCCC(=O)O)NC(=O)[C@H](CO)NC(=O)[C@H](C(C)C)NC(=O)[C@H](CC2CCCCC2)NC(=O)[C@H](CC(N)=O)NC1=O [Compound 3178] ({CH2CO}-[hArg]Y(Carboxymethyl)DWV[Bip]V[Orn][dL]N[Cha]VSC[Orn][AEEA][Orn][Aun]-OH; thioether N-14) | 7.83
CC(C)C[C@H]1NC(=O)[C@H](CCCN)NC(=O)[C@H](C(C)C)NC(=O)[C@H](Cc2ccc(-c3ccccc3)cc2)NC(=O)[C@H](C(C)C)NC(=O)[C@H](Cc2c[nH]c3ccccc23)NC(=O)[C@H](CC(=O)O)NC(=O)[C@H](Cc2ccc(OCC(=O)O)cc2)NC(=O)[C@H](Cc2ccc(OCC(=O)O)cc2)NC(=O)CSC[C@@H](C(=O)NCC(=O)NCCOCCOCC(=O)N[C@@H](CCCN)C(=O)NCCCCCCCCCCCC(=O)O)NC(=O)[C@H](CO)NC(=O)[C@H](C(C)C)NC(=O)[C@H](CC2CCCCC2)NC(=O)[C@H](CCN)NC1=O [Compound 3179] ({CH2CO}-Y(Carboxymethyl)Y(Carboxymethyl)DWV[Bip]V[Orn][dL][Dab][Cha]VSCG[AEEA][Orn][12Ado]-OH; thioether N-14) | 7.79
CC(C)C[C@H]1NC(=O)[C@H](CCCN)NC(=O)[C@H](C(C)C)NC(=O)[C@H](Cc2ccc(-c3ccccc3)cc2)NC(=O)[C@H](C(C)C)NC(=O)[C@H](Cc2c[nH]c3ccccc23)NC(=O)[C@H](CC(=O)O)NC(=O)[C@H](Cc2ccc(C(=O)O)cc2)NC(=O)[C@H](Cc2ccc(OCC(=O)O)cc2)NC(=O)CSC[C@@H](C(=O)NCC(=O)NCCOCCOCC(=O)N[C@@H](CCCN)C(=O)NCCCCCCCCCCCC(=O)O)NC(=O)[C@H](CO)NC(=O)[C@H](C(C)C)NC(=O)[C@H](CC2CCCCC2)NC(=O)[C@H](CCN)NC1=O [Compound 3180] ({CH2CO}-Y(Carboxymethyl)[Phe(4-COOH)]DWV[Bip]V[Orn][dL][Dab][Cha]VSCG[AEEA][Orn][12Ado]-OH; thioether N-14) | 7.77
CC(C)C[C@H]1NC(=O)[C@H](CCCN)NC(=O)[C@H](C(C)C)NC(=O)[C@H](Cc2ccc(-c3ccccc3)cc2)NC(=O)[C@H](C(C)C)NC(=O)[C@H](Cc2c[nH]c3ccccc23)NC(=O)[C@H](CC(=O)O)NC(=O)[C@H](Cc2ccc(OCC(=O)O)cc2)NC(=O)[C@H](CCCNC(=N)N)NC(=O)CSC[C@@H](C(=O)NCC(=O)NCCOCCOCC(=O)N[C@@H](CCCN)C(=O)NCCCCCCCCCCCC(=O)O)NC(=O)[C@H](CO)NC(=O)[C@H](C(C)C)NC(=O)[C@H](CC2CCCCC2)NC(=O)[C@H](CCN)NC1=O [Compound 3181] ({CH2CO}-RY(Carboxymethyl)DWV[Bip]V[Orn][dL][Dab][Cha]VSCG[AEEA][Orn][12Ado]-OH; thioether N-14) | 8.12
Cc1cccc(C[C@@H]2NC(=O)[C@H](CC(=O)O)NC(=O)[C@H](Cc3ccc(OCC(=O)O)cc3)NC(=O)[C@H](CCCCNC(=N)N)NC(=O)CSC[C@@H](C(=O)NCC(=O)N[C@@H](CCC(=O)O)C(=O)NCCCCCCCCCCCC(=O)O)NC(=O)[C@H](CO)NC(=O)[C@H](C(C)C)NC(=O)[C@H](CC3CCCCC3)NC(=O)[C@H](C(C)O)NC(=O)[C@@H](CC(C)C)NC(=O)[C@H](CCCN)NC(=O)[C@H](CCCNC(N)=O)NC(=O)[C@H](Cc3ccc(-c4ccccc4)cc3)NC(=O)[C@H](C(C)C)NC2=O)c1 (stereo partly drawn) [Compound 3182] ({CH2CO}-[hArg]Y(Carboxymethyl)D[Phe(3-Me)]V[Bip][Cit][Orn][dL][Thr(3ξ)][Cha]VSCGE[12Ado]-OH; thioether N-14) | 7.34
Cc1cccc(C[C@@H]2NC(=O)[C@H](CC(=O)O)NC(=O)[C@H](Cc3ccc(OCC(=O)O)cc3)NC(=O)[C@H](CCCCNC(=N)N)NC(=O)CSC[C@@H](C(=O)NCC(=O)N[C@@H](CCC(=O)O)C(=O)NCCCCCCCCCCCC(=O)O)NC(=O)[C@H](CO)NC(=O)[C@H](C(C)C)NC(=O)[C@H](CC3CCCCC3)NC(=O)[C@H](CCN)NC(=O)[C@@H](CC(C)C)NC(=O)[C@H](CCCN)NC(=O)[C@H](CCCNC(N)=O)NC(=O)[C@H](Cc3ccc(-c4ccccc4)cc3)NC(=O)[C@H](C(C)C)NC2=O)c1 [Compound 3183] ({CH2CO}-[hArg]Y(Carboxymethyl)D[Phe(3-Me)]V[Bip][Cit][Orn][dL][Dab][Cha]VSCGE[12Ado]-OH; thioether N-14) | 6.09
Cc1cccc(C[C@@H]2NC(=O)[C@H](CC(=O)O)NC(=O)[C@H](Cc3ccc(OCC(=O)O)cc3)NC(=O)[C@H](CCCCNC(=N)N)NC(=O)CSC[C@@H](C(=O)NCC(=O)NCCOCCOCC(=O)N[C@@H](CCC(=O)O)C(=O)NCCCCCCCCCCCC(=O)O)NC(=O)[C@H](CO)NC(=O)[C@H](C(C)C)NC(=O)[C@H](CC3CCCCC3)NC(=O)[C@H](CCN)NC(=O)[C@@H](CC(C)C)NC(=O)[C@H](CCCN)NC(=O)[C@H](C(C)C)NC(=O)[C@H](Cc3ccc(-c4ccccc4)cc3)NC(=O)[C@H](C(C)C)NC2=O)c1 [Compound 3184] ({CH2CO}-[hArg]Y(Carboxymethyl)D[Phe(3-Me)]V[Bip]V[Orn][dL][Dab][Cha]VSCG[AEEA]E[12Ado]-OH; thioether N-14) | 8.00
Cc1cccc(C[C@@H]2NC(=O)[C@H](CC(=O)O)NC(=O)[C@H](Cc3ccc(OCC(=O)O)cc3)NC(=O)[C@H](CCCCNC(=N)N)NC(=O)CSC[C@@H](C(=O)NCC(=O)NCCOCCOCC(=O)N[C@@H](CCC(=O)O)C(=O)NCCCCCCCCCCCC(=O)O)NC(=O)[C@H](CO)NC(=O)[C@H](C(C)C)NC(=O)[C@H](CC3CCCCC3)NC(=O)[C@H](CCN)NC(=O)[C@@H](CC(C)C)NC(=O)[C@H](CCCN)NC(=O)[C@H](CCCNC(N)=O)NC(=O)[C@H](Cc3ccc(-c4ccccc4)cc3)NC(=O)[C@H](C(C)C)NC2=O)c1 [Compound 3185] ({CH2CO}-[hArg]Y(Carboxymethyl)D[Phe(3-Me)]V[Bip][Cit][Orn][dL][Dab][Cha]VSCG[AEEA]E[12Ado]-OH; thioether N-14) | 7.75
Cc1cccc(C[C@@H]2NC(=O)[C@H](CC(=O)O)NC(=O)[C@H](Cc3ccc(OCC(=O)O)cc3)NC(=O)[C@H](CCCCNC(=N)N)NC(=O)CSC[C@@H](C(=O)N[C@@H](CCCN)C(=O)N[C@@H](CO)C(=O)NCCCCCCCCCCCC(=O)O)NC(=O)[C@H](C(C)O)NC(=O)[C@H](C(C)C)NC(=O)[C@H](CC3CCCCC3)NC(=O)[C@H](CCN)NC(=O)[C@@H](CC(C)C)NC(=O)[C@H](CCCN)NC(=O)[C@H](CCCNC(N)=O)NC(=O)[C@H](Cc3ccc(-c4ccccc4)cc3)NC(=O)[C@H](C(C)C)NC2=O)c1 (stereo partly drawn) [Compound 3187] ({CH2CO}-[hArg]Y(Carboxymethyl)D[Phe(3-Me)]V[Bip][Cit][Orn][dL][Dab][Cha]V[Thr(3ξ)]C[Orn]S[12Ado]-OH; thioether N-14) | 8.01
Cc1cccc(C[C@@H]2NC(=O)[C@H](CC(=O)O)NC(=O)[C@H](Cc3ccc(OCC(=O)O)cc3)NC(=O)[C@H](CCCCNC(=N)N)NC(=O)CSC[C@@H](C(=O)N[C@@H](CN)C(=O)N[C@@H](CCC(=O)O)C(=O)NCCCCCCCCCCCC(=O)O)NC(=O)[C@H](C(C)O)NC(=O)[C@H](C(C)C)NC(=O)[C@H](CC3CCCCC3)NC(=O)[C@H](CCN)NC(=O)[C@@H](CC(C)C)NC(=O)[C@H](CCCN)NC(=O)[C@H](CCCNC(N)=O)NC(=O)[C@H](Cc3ccc(-c4ccccc4)cc3)NC(=O)[C@H](C(C)C)NC2=O)c1 (stereo partly drawn) [Compound 3188] ({CH2CO}-[hArg]Y(Carboxymethyl)D[Phe(3-Me)]V[Bip][Cit][Orn][dL][Dab][Cha]V[Thr(3ξ)]C[Dap]E[12Ado]-OH; thioether N-14) | 6.52
CC(C)C[C@@H]1NC(=O)[C@H](Cc2c[nH]c3ccccc23)NC(=O)[C@H](CC(=O)O)NC(=O)[C@H](Cc2ccc(OCC(=O)O)cc2)NC(=O)[C@H](CCCCNC(=N)N)NC(=O)CSC[C@@H](C(=O)NCC(=O)NCCOCCOCC(=O)N[C@@H](CCCN)C(=O)NCCOCCOCC(=O)NCCCCCCCCCCCC(=O)O)NC(=O)[C@H](CO)NC(=O)[C@H](C(C)C)NC(=O)[C@H](CC2CCCCC2)NC(=O)[C@H](CCN)NC(=O)[C@@H](CC(C)C)NC(=O)[C@H](CCCN)NC(=O)[C@H](C(C)C)NC(=O)[C@H](Cc2ccc(-c3ccccc3)cc2)NC1=O [Compound 3189] ({CH2CO}-[hArg]Y(Carboxymethyl)DWL[Bip]V[Orn][dL][Dab][Cha]VSCG[AEEA][Orn][AEEA][12Ado]-OH; thioether N-14) | 7.66
CC(C)C[C@H]1NC(=O)[C@H](CCCN)NC(=O)[C@H](C(C)C)NC(=O)[C@H](Cc2ccc(-c3ccccc3)cc2)NC(=O)[C@H](C(C)C)NC(=O)[C@H](Cc2c[nH]c3ccccc23)NC(=O)[C@H](CC(=O)O)NC(=O)[C@H](Cc2ccc(OCC(=O)O)cc2)NC(=O)[C@H](CCCCNC(=N)N)NC(=O)CSC[C@@H](C(=O)NCC(=O)NCCOCCOCC(=O)N[C@@H](CCCN)C(=O)NCCOCCOCC(=O)NCCCCCCCCCCCC(=O)O)NC(=O)[C@H](CO)NC(=O)[C@H](C(C)C)NC(=O)[C@H](CC2CCCCC2)NC(=O)[C@H](CCN)NC1=O [Compound 3190] ({CH2CO}-[hArg]Y(Carboxymethyl)DWV[Bip]V[Orn][dL][Dab][Cha]VSCG[AEEA][Orn][AEEA][12Ado]-OH; thioether N-14) | 7.69
CC(C)C[C@H]1NC(=O)[C@H](CCCN)NC(=O)[C@H](C(C)C)NC(=O)[C@H](Cc2ccc(-c3ccccc3)cc2)NC(=O)[C@H](C(C)C)NC(=O)[C@H](Cc2c[nH]c3ccccc23)NC(=O)[C@H](CC(=O)O)NC(=O)[C@H](Cc2ccc(OCC(=O)O)cc2)NC(=O)[C@H](CN)NC(=O)CSC[C@@H](C(=O)N[C@@H](CCCN)C(=O)NCCOCCOCC(=O)NCCCCCCCCCCC(=O)O)NC(=O)[C@H](C(C)O)NC(=O)[C@H](C(C)C)NC(=O)[C@H](CC2CCCCC2)NC(=O)[C@H](CCN)NC1=O (stereo partly drawn) [Compound 3191] ({CH2CO}-[Dap]Y(Carboxymethyl)DWV[Bip]V[Orn][dL][Dab][Cha]V[Thr(3ξ)]C[Orn][AEEA][Aun]-OH; thioether N-14) | 7.94
